The results in this text go back to ChEMBL document CHEMBL1153452, “Synthesis and in vitro affinities of various MDL 100907 derivatives as potential 18F-radioligands for 5-HT2A receptor imaging with PET” (Bioorg Med Chem, 2009).

Among the targets are Histamine H2 receptor (Homo sapiens, UniProt P25021); D(4) dopamine receptor (Homo sapiens, UniProt P21917); Mu-type opioid receptor (Homo sapiens, UniProt P35372); D(1A) dopamine receptor (Homo sapiens, UniProt P21728); Histamine H1 receptor (Homo sapiens, UniProt P35367); Histamine H3 receptor (Homo sapiens, UniProt Q9Y5N1); D(1B) dopamine receptor (Homo sapiens, UniProt P21918).

Data set [1] addresses 5-hydroxytryptamine receptor 2B (Homo sapiens, UniProt P41595).
Another data set in a line: physchem. To be noted: Soerensen buffer.
The target in data set [2] is T1, Alpha-1B adrenergic receptor (Homo sapiens, UniProt P35368).
T1 sequence (P35368 whole entry): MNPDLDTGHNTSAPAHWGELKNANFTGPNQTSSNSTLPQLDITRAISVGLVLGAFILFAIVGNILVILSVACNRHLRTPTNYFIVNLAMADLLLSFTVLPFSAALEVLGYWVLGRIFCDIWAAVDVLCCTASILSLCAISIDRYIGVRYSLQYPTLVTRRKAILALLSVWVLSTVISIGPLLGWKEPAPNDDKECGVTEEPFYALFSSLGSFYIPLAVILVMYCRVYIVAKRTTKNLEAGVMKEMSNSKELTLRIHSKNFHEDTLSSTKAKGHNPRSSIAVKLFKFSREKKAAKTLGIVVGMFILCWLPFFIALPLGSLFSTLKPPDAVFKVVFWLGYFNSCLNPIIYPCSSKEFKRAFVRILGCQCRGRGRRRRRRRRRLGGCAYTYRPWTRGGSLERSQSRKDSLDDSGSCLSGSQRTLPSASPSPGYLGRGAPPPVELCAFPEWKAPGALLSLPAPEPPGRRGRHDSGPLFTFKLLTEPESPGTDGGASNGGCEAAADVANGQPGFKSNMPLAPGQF

Data set [3] addresses 5-hydroxytryptamine receptor 6 (Homo sapiens, UniProt P50406).
For data set [4], the target named is Sodium-dependent dopamine transporter (Homo sapiens, UniProt Q01959).
Sodium-dependent dopamine transporter, sequence (Q01959 whole entry): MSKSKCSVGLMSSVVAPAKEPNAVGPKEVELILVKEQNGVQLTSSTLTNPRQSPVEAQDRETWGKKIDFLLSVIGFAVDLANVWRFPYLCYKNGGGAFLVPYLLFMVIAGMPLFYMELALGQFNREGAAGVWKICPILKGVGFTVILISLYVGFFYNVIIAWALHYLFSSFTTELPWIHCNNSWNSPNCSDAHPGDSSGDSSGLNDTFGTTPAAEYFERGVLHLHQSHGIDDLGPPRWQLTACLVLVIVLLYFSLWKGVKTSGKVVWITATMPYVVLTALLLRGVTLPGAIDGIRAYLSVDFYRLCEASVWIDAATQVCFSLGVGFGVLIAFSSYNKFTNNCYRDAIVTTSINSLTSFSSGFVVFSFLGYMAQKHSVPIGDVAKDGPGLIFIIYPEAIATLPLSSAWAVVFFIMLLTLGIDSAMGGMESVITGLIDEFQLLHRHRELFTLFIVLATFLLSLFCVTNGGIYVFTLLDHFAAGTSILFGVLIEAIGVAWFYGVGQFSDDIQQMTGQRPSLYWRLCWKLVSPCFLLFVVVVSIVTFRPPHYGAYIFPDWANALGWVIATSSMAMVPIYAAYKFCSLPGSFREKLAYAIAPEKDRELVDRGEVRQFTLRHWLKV
Data set [5] addresses 5-hydroxytryptamine receptor 5A (Homo sapiens, UniProt P47898).
The target in data set [6] is Beta-3 adrenergic receptor (Homo sapiens, UniProt P13945).
Beta-3 adrenergic receptor, sequence (P13945 whole entry): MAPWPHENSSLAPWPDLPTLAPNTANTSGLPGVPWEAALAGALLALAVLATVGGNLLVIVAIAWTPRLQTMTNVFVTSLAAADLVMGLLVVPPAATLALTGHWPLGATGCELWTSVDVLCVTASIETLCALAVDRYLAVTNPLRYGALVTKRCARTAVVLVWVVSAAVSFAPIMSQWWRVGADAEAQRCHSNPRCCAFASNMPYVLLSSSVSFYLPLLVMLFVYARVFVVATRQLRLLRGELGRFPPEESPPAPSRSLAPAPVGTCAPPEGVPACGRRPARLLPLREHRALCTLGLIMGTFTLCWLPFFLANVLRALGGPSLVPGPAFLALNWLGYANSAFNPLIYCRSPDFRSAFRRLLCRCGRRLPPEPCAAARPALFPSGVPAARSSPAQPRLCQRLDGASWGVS
The target of data set [7] is 5-hydroxytryptamine receptor 1D (Homo sapiens, UniProt P28221).
Data set [8] deals with T2, Alpha-2A adrenergic receptor (Homo sapiens, UniProt P08913).
T2 sequence (P08913 whole entry): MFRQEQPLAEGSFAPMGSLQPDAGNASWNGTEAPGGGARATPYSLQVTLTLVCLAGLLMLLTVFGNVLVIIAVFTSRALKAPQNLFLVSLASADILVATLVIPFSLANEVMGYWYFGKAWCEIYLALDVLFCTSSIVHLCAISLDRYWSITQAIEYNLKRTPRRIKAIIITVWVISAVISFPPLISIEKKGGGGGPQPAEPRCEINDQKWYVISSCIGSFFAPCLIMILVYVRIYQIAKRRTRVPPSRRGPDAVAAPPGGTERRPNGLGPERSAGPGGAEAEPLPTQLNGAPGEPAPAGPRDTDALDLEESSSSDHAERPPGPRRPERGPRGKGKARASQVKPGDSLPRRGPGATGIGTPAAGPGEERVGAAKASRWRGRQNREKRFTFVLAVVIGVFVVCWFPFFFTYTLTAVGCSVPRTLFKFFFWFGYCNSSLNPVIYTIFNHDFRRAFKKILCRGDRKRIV

Data set [9] has as its target Alpha-2C adrenergic receptor (Homo sapiens, UniProt P18825).
In data set [10] the target is T3, D(2) dopamine receptor (Homo sapiens, UniProt P14416).
T3 sequence (P14416 whole entry): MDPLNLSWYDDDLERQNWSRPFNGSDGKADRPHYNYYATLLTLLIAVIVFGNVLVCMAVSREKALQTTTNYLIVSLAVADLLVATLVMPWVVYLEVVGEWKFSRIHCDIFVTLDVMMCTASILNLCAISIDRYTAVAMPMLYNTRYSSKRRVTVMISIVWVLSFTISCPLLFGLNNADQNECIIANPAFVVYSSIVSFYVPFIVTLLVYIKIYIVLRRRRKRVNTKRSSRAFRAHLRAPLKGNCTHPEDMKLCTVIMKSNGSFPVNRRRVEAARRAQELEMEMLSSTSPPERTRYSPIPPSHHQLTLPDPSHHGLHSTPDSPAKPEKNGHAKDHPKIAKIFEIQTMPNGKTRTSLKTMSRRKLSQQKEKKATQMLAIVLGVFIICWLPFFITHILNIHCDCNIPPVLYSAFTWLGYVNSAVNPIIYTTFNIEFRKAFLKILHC
Data set [11] addresses Sodium-dependent serotonin transporter (Homo sapiens, UniProt P31645).
Data set [12] deals with T4, 5-hydroxytryptamine receptor 2A (Rattus norvegicus, UniProt P14842). Briefly: biochemical.
For data set [13], the target named is Alpha-1A adrenergic receptor (Homo sapiens, UniProt P35348).
Data set [14] addresses T4, 5-hydroxytryptamine receptor 2A. Briefly: Displacement of [3H]altanserine from rat cortical membrane 5HT2A receptor. (In general: Loss of bound radioactivity is the signal in a displacement assay; it reports binding, not function.)
Data set [15] concerns the target T3, D(2) dopamine receptor. Briefly: Binding affinity to dopamine D2 receptor by competitive binding experiment.

Bounds are passed on as bounds.

Mu-type opioid receptor, sequence (P35372 whole entry): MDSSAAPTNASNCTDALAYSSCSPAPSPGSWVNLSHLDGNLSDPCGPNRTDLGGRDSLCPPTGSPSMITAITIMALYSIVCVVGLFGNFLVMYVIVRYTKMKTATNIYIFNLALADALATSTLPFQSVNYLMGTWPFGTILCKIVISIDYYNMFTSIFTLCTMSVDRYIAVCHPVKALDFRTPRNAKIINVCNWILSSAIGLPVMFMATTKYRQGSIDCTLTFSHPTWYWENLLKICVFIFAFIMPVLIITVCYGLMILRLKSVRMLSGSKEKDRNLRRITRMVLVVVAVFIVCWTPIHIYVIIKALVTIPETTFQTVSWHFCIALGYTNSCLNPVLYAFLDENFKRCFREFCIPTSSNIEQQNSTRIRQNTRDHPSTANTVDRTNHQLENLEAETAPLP
5-hydroxytryptamine receptor 6, sequence (P50406 whole entry): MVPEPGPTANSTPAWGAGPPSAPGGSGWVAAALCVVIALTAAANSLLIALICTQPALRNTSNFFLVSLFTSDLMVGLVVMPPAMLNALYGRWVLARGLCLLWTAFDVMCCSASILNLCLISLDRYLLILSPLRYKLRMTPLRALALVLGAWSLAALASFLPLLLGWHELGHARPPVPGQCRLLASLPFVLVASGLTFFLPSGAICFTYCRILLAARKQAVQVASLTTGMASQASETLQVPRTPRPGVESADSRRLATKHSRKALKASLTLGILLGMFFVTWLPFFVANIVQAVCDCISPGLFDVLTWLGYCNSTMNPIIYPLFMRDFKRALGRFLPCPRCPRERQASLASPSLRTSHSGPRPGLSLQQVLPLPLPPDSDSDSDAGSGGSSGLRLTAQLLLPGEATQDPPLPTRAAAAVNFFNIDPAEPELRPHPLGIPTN
5-hydroxytryptamine receptor 5A, sequence (P47898 whole entry): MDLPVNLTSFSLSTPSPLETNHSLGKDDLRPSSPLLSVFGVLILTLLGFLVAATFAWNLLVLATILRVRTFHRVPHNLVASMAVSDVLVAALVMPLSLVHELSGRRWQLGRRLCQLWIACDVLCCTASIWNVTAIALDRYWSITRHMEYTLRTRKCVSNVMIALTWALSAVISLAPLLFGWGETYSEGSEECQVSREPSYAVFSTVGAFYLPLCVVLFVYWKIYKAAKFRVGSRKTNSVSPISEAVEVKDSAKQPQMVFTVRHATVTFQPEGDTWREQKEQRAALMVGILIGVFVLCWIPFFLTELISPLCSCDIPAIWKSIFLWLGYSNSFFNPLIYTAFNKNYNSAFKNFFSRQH
Histamine H3 receptor, sequence (Q9Y5N1 whole entry): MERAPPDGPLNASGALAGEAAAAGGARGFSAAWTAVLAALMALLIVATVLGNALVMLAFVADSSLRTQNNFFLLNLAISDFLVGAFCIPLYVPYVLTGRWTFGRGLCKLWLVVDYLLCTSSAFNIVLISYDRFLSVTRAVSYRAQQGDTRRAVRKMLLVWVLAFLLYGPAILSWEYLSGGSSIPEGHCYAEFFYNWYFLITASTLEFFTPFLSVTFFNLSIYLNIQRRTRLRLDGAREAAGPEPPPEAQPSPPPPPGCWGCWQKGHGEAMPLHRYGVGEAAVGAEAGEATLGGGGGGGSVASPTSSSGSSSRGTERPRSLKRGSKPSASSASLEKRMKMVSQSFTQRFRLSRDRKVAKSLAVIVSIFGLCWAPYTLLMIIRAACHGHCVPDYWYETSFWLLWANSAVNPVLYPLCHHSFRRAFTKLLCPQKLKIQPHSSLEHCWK
D(4) dopamine receptor, sequence (P21917 whole entry): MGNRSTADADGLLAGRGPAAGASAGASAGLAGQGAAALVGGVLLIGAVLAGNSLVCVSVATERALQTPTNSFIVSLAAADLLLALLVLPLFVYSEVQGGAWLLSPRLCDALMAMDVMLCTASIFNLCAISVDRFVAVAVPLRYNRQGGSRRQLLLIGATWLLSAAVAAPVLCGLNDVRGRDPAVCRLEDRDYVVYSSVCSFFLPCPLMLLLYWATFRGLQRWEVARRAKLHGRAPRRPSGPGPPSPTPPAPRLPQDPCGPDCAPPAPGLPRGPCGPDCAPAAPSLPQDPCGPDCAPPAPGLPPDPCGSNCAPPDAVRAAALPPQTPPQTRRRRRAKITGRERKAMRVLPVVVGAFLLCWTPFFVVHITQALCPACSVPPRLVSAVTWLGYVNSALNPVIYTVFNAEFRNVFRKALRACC
D(1A) dopamine receptor, sequence (P21728 whole entry): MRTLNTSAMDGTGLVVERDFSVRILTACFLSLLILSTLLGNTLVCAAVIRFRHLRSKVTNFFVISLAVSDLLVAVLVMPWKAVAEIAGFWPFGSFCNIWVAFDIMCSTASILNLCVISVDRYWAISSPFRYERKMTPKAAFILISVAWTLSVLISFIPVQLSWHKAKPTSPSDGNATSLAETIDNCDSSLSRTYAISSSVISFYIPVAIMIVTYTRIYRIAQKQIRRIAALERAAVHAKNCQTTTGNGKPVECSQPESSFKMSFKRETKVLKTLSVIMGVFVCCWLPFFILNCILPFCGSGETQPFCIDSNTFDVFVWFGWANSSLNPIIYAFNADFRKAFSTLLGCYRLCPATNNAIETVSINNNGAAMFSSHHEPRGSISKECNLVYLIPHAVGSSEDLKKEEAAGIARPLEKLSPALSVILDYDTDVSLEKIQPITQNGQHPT
5-hydroxytryptamine receptor 2B, sequence (P41595 whole entry): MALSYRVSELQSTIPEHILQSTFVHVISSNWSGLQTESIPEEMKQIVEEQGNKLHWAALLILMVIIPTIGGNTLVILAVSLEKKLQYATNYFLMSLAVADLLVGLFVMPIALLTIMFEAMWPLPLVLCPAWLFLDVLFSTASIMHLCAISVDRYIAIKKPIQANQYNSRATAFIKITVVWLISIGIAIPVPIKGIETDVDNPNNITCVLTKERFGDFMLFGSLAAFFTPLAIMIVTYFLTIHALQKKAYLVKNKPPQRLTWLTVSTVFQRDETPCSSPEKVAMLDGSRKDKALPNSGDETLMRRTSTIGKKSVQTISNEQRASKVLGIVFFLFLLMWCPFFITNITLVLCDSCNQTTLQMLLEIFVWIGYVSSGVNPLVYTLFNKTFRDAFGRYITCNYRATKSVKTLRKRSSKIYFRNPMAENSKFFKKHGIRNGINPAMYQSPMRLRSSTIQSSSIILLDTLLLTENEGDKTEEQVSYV
Histamine H2 receptor, sequence (P25021 whole entry): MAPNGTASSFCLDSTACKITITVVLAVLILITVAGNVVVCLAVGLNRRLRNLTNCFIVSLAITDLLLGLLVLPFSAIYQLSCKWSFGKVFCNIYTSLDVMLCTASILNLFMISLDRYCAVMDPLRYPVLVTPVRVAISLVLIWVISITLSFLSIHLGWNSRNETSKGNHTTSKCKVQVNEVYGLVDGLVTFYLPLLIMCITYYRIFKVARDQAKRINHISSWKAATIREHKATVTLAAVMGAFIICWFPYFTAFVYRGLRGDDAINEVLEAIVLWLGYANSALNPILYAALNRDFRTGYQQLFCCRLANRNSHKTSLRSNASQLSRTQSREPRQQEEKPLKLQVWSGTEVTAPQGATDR

One may read the Ki as a dissociation constant, usually derived from enzyme kinetics or from competition with a known ligand. Lower therefore signals higher affinity. As a reminder, the logP is the decadic logarithm of the partition coefficient of the neutral form, usually between octanol and water. High values mean higher lipophilicity, low ones lower lipophilicity. Take `COc1c(OCCF)cccc1C(O)C1CCN(CCc2ccc(F)cc2)CC1` (configuration not stated): the Ki is 299 nM in [1]; 3180 nM on Histamine H2 receptor; 325 nM in data set [2]; 544 nM at D(4) dopamine receptor; 3890 nM in data set [3]; above 10000 nM in data set [4]. Moreover, the Ki in data set [5] is above 10000 nM; in data set [6] it was above 10000 nM; in data set [7] it was 706 nM; on Mu-type opioid receptor, above 10000 nM; at D(1A) dopamine receptor it was 899 nM; in data set [8], above 10000 nM. The Ki in data set [9] was 148 nM; on Histamine H1 receptor it was 374 nM; on D(2) dopamine receptor [10], above 10000 nM; in data set [11] it was 3520 nM; at Histamine H3 receptor, above 10000 nM. Besides, the logP in the data set “physchem” turned out to be 2.8.

`COc1c(O)cccc1C(O)C1CCN(CCc2ccc([N+](=O)[O-])cc2)CC1` (configuration not stated) came in with a logP in “physchem” of 1.9.

`COc1c(OCCF)cccc1C(O)C1CCN(CCc2ccc([N+](=O)[O-])cc2)CC1` (configuration not stated): the Ki in data set [12] is 26 nM; in data set [1], 1840 nM; in [3], above 10000 nM; in data set [5], above 10000 nM; in data set [7] it was 3420 nM. Besides, the logP in the data set “physchem” is 2.37.

As for `COc1ccc(CCN2CCC(C(=O)c3cccc(OCCF)c3OC)CC2)cc1`, the Ki in data set [12] was 153 nM; in data set [1], 1970 nM; in [3], above 10000 nM; in data set [5], above 10000 nM; in data set [7], 1440 nM. In “physchem”, this compound displayed a logP of 3.02.

For `COc1cccc(C(O)C2CCN(Cc3ccc(F)cc3)CC2)c1OC` (configuration not stated), in data set [12], the Ki is above 1000 nM.

Consider `COc1c(O)cccc1[C@H](O)C1CCN(CCc2ccc(F)cc2)CC1`, for which the Ki in data set [12] was 0.25 nM.

As to `COc1c(O)cccc1C(=O)C1CCN(CCc2ccc(F)cc2)CC1`, affinity in data set [12] was put at a Ki of 1.34 nM.

In turn, `COc1c(OCCF)cccc1C(O)C1CCN(CCc2ccc(N)cc2)CC1` (configuration not stated) registered a Ki in [12] of 2.06 nM.

`COc1ccc(CCN2CCC(C(O)c3cccc(OCCF)c3OC)CC2)cc1` (configuration not stated): the Ki in data set [12] is 59 nM; in data set [1], 2750 nM; in data set [3] it was above 10000 nM; in data set [5], above 10000 nM; in [7], above 10000 nM. In “physchem”, this compound showed a logP of 2.72.

Take `COc1c(OCCF)cccc1C(=O)C1CCN(CCc2ccc([N+](=O)[O-])cc2)CC1`: the Ki in [12] was 118 nM; in [1], 1050 nM; in [3] it was above 10000 nM; in [5] it was above 10000 nM; in data set [7], 1830 nM. The compound further had a logP in the data set “physchem” of 2.71.

`COc1c(OCCF)cccc1C(O)C1CCN(C(=O)Cc2ccccc2)CC1` (configuration not stated) registered an inhibitory constant (Ki) in data set [12] of 1990 nM. In addition, the logP in the data set “physchem” turned out to be 1.57.

`COc1c(OCCF)cccc1C(O)C1CCN(CCc2ccccc2)CC1` (configuration not stated) registered a Ki in data set [12] of 1.63 nM. For the same compound, in the data set “physchem”, the logP is 2.92.

In data set [12], `COc1c(O)cccc1C(O)C1CCN(CCc2ccc(F)cc2)CC1` (configuration not stated) displayed a Ki of 1.24 nM. Also, the logP in “physchem” was determined as 2.27.

For `COc1ccc(CCN2CCC(C(O)c3cccc(OC)c3OC)CC2)cc1` (configuration not stated), in [12], the Ki is 55 nM.

For the compound `COc1cccc(C(O)C2CCN(CCc3ccc(C)cc3)CC2)c1OC` (configuration not stated), the affinity in data set [12], expressed as Ki, was 0.31 nM.

Turning to `COc1c(OCCF)cccc1[C@H](O)C1CCN(CCc2ccc(F)cc2)CC1`, the Ki was 0.72 nM in data set [12]; 320 nM in [1]; 2430 nM on Histamine H2 receptor; 500 nM in [2]; 442 nM on D(4) dopamine receptor; 7420 nM at D(1B) dopamine receptor. The Ki in data set [3] is 3840 nM; in data set [4] it was above 10000 nM; in data set [5] it was 6810 nM; in data set [6], above 10000 nM; in data set [7], 1060 nM; at Mu-type opioid receptor it was above 10000 nM. Besides, the Ki is 335 nM in data set [13]; 3830 nM at D(1A) dopamine receptor; above 10000 nM in [8]; 509 nM at Histamine H1 receptor; 2690 nM on D(2) dopamine receptor [10]; 2210 nM in [11]. This compound also had a Ki on Histamine H3 receptor above 10000 nM. The same compound gave a logP in the data set “physchem” of 2.8.

Regarding `COc1c(OCCF)cccc1C(=O)C1CCN(CCc2ccc(F)cc2)CC1`, the Ki in [12] was 3.23 nM; in data set [1] it was 960 nM; on Histamine H2 receptor it was 1760 nM; in [2], 550 nM; on D(4) dopamine receptor it was 174 nM; at D(1B) dopamine receptor, 7400 nM. Besides, the Ki in data set [3] was above 10000 nM; in data set [4], above 10000 nM; in data set [5] it was 1580 nM; in data set [6] it was above 10000 nM; in [7], 713 nM; at Mu-type opioid receptor, above 10000 nM. The inhibition constant (Ki) in [13] was 146 nM; at D(1A) dopamine receptor it was 1410 nM; in data set [8] it was 863 nM; in data set [9], 333 nM; on Histamine H1 receptor, 944 nM; on D(2) dopamine receptor [10], 3830 nM. For the same compound, the inhibition constant (Ki) was 3090 nM in data set [11] and above 10000 nM on Histamine H3 receptor. Moreover, the logP in “physchem” was determined as 3.08.

Compound `COc1cccc(C(O)C2CCN(CCc3ccc([N+](=O)[O-])cc3)CC2)c1OC` (configuration not stated) yielded a Ki in data set [12] of 90 nM.

In the case of `O=C(c1ccc(F)cc1)C1CCN(CCn2c(=S)[nH]c3ccccc3c2=O)CC1` [ALTANSERIN], the Ki in data set [12] amounted to 0.72 nM; in data set [14] it was 0.13 nM; on D(2) dopamine receptor [15] it was 62 nM. This compound yielded a logP in “physchem” of 2.15.

In “physchem”, `COc1cccc([C@H](O)C2CCN(CCc3ccc(F)cc3)CC2)c1OC` [VOLINANSERIN] gave a logP of 2.98.
